Test results from patent EP3345917A1, “ANTIPROTOZOAL COMPOUNDS” (Bacoba AG, priority 2017, dated 2018).
Non-standard residues stand in square brackets, D forms with d. Residues, ends and D or L forms follow the SMILES beside them. *: point of attachment. Hexenoyl(2E,4S-Me) = CC[C@H](C)/C=C/C(=O)*; Leu(3R-OH) = CC(C)[C@@H](O)[C@H](N)C(=O)O; NH((S)CH(Me)CH2NMe2) = C[C@@H](CN(C)C)N*; Gly(octyl) = CCCCCCCC[C@H](N)C(=O)O; Piperazinyl(4-Me) = CN1CCN(*)CC1; Nle = CCCC[C@H](N)C(=O)O; Hexanoyl = CCCCCC(=O)*; Aib = CC(C)(N)C(=O)O; βAla = NCCC(=O)O

Experiments:
[1] = system: Axenically grown Leishmania donovani amastigotes (strain MHOM/ET/67/L82); assay: Axenic Leishmania donovani amastigote resazurin assay; type: cell-based; conditions: In vitro inhibition, read-out: L.don. ax
Description: (§1) Tests were done in triplicate.
Axenically grown Leishmania donovani amastigotes (strain MHOM/ET/67/L82) were grown and tests were done as previously described using the resazurin assay (Räz B et al. Acta Tropica 1997, 68:139-147). The plates were developed for 2-4 hours and read on a Spectramax Gemini XS micro plate fluorometer (Molecular Devices Cooperation) using an excitation wavelength of 536 nm and emission wavelength of 588 nm. Fluorescence development was measured and expressed as percentage of the negative control. […] Data were transferred to the graphic programme Softmax Pro (Molecular Devices), with which IC50 values were calculated.

[2] = system: Trypanosoma cruzi trypomastigote forms (Tulahuen strain); assay: Intracellular Trypanosoma cruzi assay in L6-cells, beta-galactosidase/CPRG readout; type: cell-based; conditions: In vitro inhibition, read-out: T.cruzi.
Description: as §1
Trypanosoma cruzi trypomastigote forms (Tulahuen strain C2C4 containing β-galactosidase (Lac Z) gene) were cultured as described by Buckner et al. (Buckner FS et al. Antimicrob Agents Ch1996; 40: 2592-2597) in rat myoblast cells (L6-cells). […] After incubation, the substrate chlorophenyl red β-D-galactopyranoside agent CPRG/Nonident was added to all wells and a color change was developed within 2 to 6 h. The plates were read photometrically at 540 nm (Molecular Devices). Data were evaluated and IC50 values calculated using Softmax Pro software (Molecular Devices).

[3] = Cytotoxicity assay on L6-cells (Alamar Blue); conditions: rat, Cytotox L6, Cytotoxicity against rat myoblast cells (L6)
[4] = system: Trypanosoma brucei rhodesiense (STIB 900 strain); assay: Alamar Blue assay against Trypanosoma brucei rhodesiense grown in axenic medium; type: cell-based; conditions: In vitro inhibition, read-out: T.b.rhod.
Description: as §1
Trypanosoma brucei rhodesiense (STIB 900) were grown in axenic medium as described by Baltz et al. (1985) The samples were tested using the Alamar Blue assay protocol (Baltz T et al. EMBO J 1985; 4:1273-1277) to determine the 50% inhibitory concentration (IC50). […] Melarsoprol (Arsobal®, Sanofi-Aventis, Switzerland) was used as a reference drug (IC50= 0.03 ± 0.01 µM). Its purity was over 95 %, as was certified by the supplier. The IC50 values were calculated by using Softmax Pro software (Molecular Devices Cooperation, Sunnyvale, CA).

Plasmodium falciparum = assay: 3H-hypoxanthine incorporation assay against Plasmodium falciparum; type: cell-based; conditions: In vitro inhibition, read-out: P.falc NF5
Description: as §1
IC50 values were calculated by linear interpolation.

Structure (SMILES) | IC50 [1] [nM] | IC50 [2] [µM] | IC50 at 70 h [3] [µM] | IC50 [4] [nM] | IC50 (Plasmodium falciparum) [nM]
CCCCCCCC[C@H](NC(=O)[C@@H]1CCCN1C(=O)/C=C/[C@@H](C)CC)C(=O)N[C@H](C(=O)NCCC(=O)N[C@@H](C)CN(C)C)[C@H](O)C(C)C [Compound 5523, (2S)-N-[(1S,2R)-1-[(2-{[(2S)-1-(dimethylamino)propan-2-yl]carbamoyl}ethyl)carbamoyl]-2-hydroxy-3-methylbutyl]-2-{[(2S)-1-[(2E,4S)-4-methylhex-2-enoyl]pyrrolidin-2-yl]formamido}decanamide] | 482 | 5.73 | 8.61 | 2440 | 4750
CC[C@H](C)/C=C/C(=O)N1CCC[C@H]1C(=O)N[C@@H](C)C(=O)N[C@H](C(=O)NC(C)(C)C(=O)N[C@@H](CC(C)C)C(=O)N[C@@H](CC(C)C)C(=O)NC(C)(C)C(=O)NC(C)(C)C(=O)NCCC(=O)N[C@@H](C)CN(C)C)[C@H](O)C(C)C [Compound 5526, (2S,3R)-N-(1-{[(1S)-1-{[(1S)-1-{[1-({1-[(2-{[(2S)-1-(dimethylamino)propan-2-yl]carbamoyl}ethyl)carbamoyl]-1-methylethyl}carbamoyl)-1-methylethyl]carbamoyl}-3-methylbutyl]carbamoyl}-3-methylbutyl]carbamoyl}-1-methylethyl)-3-hydroxy-4-methyl-2-[(2S)-2-{[(2S)-1-[(2E,4S)-4-methylhex-2-enoyl]pyrrolidin-2-yl]formamido}propanamido]pentanamide] ({Hexenoyl(2E,4S-Me)}-PA[Leu(3R-OH)][Aib]LL[Aib][Aib][βAla]-{NH((S)CH(Me)CH2NMe2)}) | 286 | 4.5 | 3.64 | 2.35 | 83.8
CCCCCCCC[C@H](NC(=O)[C@H](C)NC(=O)/C=C/[C@@H](C)CC)C(=O)N[C@H](C(=O)NC(C)(C)C(=O)N[C@@H](CC(C)C)C(=O)N[C@@H](CC(C)C)C(=O)NC(C)(C)C(=O)NC(C)(C)C(=O)NCCC(=O)N[C@@H](C)CN(C)C)[C@H](O)C(C)C [Compound 5527, (2S)-N-[(1S,2R)-1-[(1-{[(1S)-1-{[(1S)-1-{[1-({1-[(2-{[(2S)-1-(dimethylamino)propan-2-yl]carbamoyl}ethyl)carbamoyl]-1-methylethyl}carbamoyl)-1-methylethyl]carbamoyl}-3-methylbutyl]carbamoyl}-3-methylbutyl]carbamoyl}-1-methylethyl)carbamoyl]-2-hydroxy-3-methylbutyl]-2-[(2S)-2-[(2E,4S)-4-methylhex-2-enamido]propanamido]decanamide] ({Hexenoyl(2E,4S-Me)}-A[Gly(octyl)][Leu(3R-OH)][Aib]LL[Aib][Aib][βAla]-{NH((S)CH(Me)CH2NMe2)}) | 1.1 | 0.0679 | 0.274 | 1.8 | 8.4
CCCC[C@H](NC(=O)[C@@H]1CCCN1C(=O)/C=C/[C@@H](C)CC)C(=O)N[C@H](C(=O)NC(C)(C)C(=O)N[C@@H](CC(C)C)C(=O)N[C@@H](CC(C)C)C(=O)NC(C)(C)C(=O)NC(C)(C)C(=O)NCCC(=O)N[C@@H](C)CN(C)C)[C@H](O)C(C)C [Compound 5561, (2S)-N-[(1S,2R)-1-[(1-{[(1S)-1-{[(1S)-1-{[1-({1-[(2-{[(2S)-1-(dimethylamino)propan-2-yl]carbamoyl}ethyl)carbamoyl]-1-methylethyl}carbamoyl)-1-methylethyl]carbamoyl}-3-methylbutyl]carbamoyl}-3-methylbutyl]carbamoyl}-1-methylethyl)carbamoyl]-2-hydroxy-3-methylbutyl]-2-{[(2S)-1-[(2E,4S)-4-methylhex-2-enoyl]pyrrolidin-2-yl]formamido}hexanamide] ({Hexenoyl(2E,4S-Me)}-P[Nle][Leu(3R-OH)][Aib]LL[Aib][Aib][βAla]-{NH((S)CH(Me)CH2NMe2)}) | 4.1 | 0.162 | 0.356 | 0.7 | 4.5
CCCCCCCC[C@H](NC(=O)[C@@H]1CCCN1C(=O)/C=C/[C@@H](C)CC)C(=O)N[C@H](C(=O)NC(C)(C)C(=O)N[C@@H](CC(C)C)C(=O)N[C@@H](CC(C)C)C(=O)NC(C)(C)C(=O)NC(C)(C)C(=O)NCCC(=O)N1CCN(C)CC1)[C@H](O)C(C)C [Compound 5571, (2S)-N-[(1S,2R)-2-hydroxy-3-methyl-1-[(1-methyl-1-{[(1S)-3-methyl-1-{[(1S)-3-methyl-1-({1-methyl-1-[(1-methyl-1-{[3-(4-methylpiperazin-1-yl)-3-oxopropyl]carbamoyl}ethyl)carbamoyl]ethyl}carbamoyl)butyl]carbamoyl}butyl]carbamoyl}ethyl)carbamoyl]butyl]-2-{[(2S)-1-[(2E,4S)-4-methylhex-2-enoyl]pyrrolidin-2-yl]formamido}decanamide] ({Hexenoyl(2E,4S-Me)}-P[Gly(octyl)][Leu(3R-OH)][Aib]LL[Aib][Aib][βAla]-{Piperazinyl(4-Me)}) | 398 | 2.93 | 2.63 | 214 | 125
CCCCCCCC[C@H](NC(=O)[C@@H]1CCCN1C(=O)CCCCC)C(=O)N[C@H](C(=O)NC(C)(C)C(=O)NC(C)(C)C(=O)NCCC(=O)N[C@@H](C)CN(C)C)[C@@H](C)O [Compound 5594, (2S)-N-[(1S)-1-[[(1S,2R)-1-[[2-[[2-[[3-[[(1S)-2-(dimethylamino)-1-methyl-ethyl]amino]-3-oxo-propyl]amino]-1,1-dimethyl-2-oxo-ethyl]amino]-1,1-dimethyl-2-oxo-ethyl]carbamoyl]-2-hydroxy-propyl]carbamoyl]nonyl]-1-hexanoyl-pyrrolidine-2-carboxamide] (Hexanoyl-P[Gly(octyl)]T[Aib][Aib][βAla]-{NH((S)CH(Me)CH2NMe2)}) | 571 | 8.61 | 6.02 | 2240 | 2320
CCCCCCCC[C@H](NC(=O)[C@@H]1CCCN1C(=O)CCCCC)C(=O)N[C@H](C(=O)N[C@@H](CC(C)C)C(=O)NC(C)(C)C(=O)NC(C)(C)C(=O)NCCC(=O)N[C@@H](C)CN(C)C)[C@@H](C)O [Compound 5596, (2S)-N-[(1S,2R)-1-{[(1S)-1-{[1-({1-[(2-{[(2S)-1-(dimethylamino)propan-2-yl]carbamoyl}ethyl)carbamoyl]-1-methylethyl}carbamoyl)-1-methylethyl]carbamoyl}-3-methylbutyl]carbamoyl}-2-hydroxypropyl]-2-{[(2S)-1-hexanoylpyrrolidin-2-yl]formamido}decanamide] (Hexanoyl-P[Gly(octyl)]TL[Aib][Aib][βAla]-{NH((S)CH(Me)CH2NMe2)}) | 791 | 7.74 | 5.03 | 667 | 1240
CCCCCCCC[C@H](NC(=O)[C@@H]1CCCN1C(=O)CCCCC)C(=O)N[C@H](C(=O)N[C@@H](CC(C)C)C(=O)N[C@@H](CC(C)C)C(=O)NC(C)(C)C(=O)NC(C)(C)C(=O)NCCC(=O)N[C@@H](C)CN(C)C)[C@@H](C)O [Compound 5598, (2S)-N-[(1S,2R)-1-{[(1S)-1-{[(1S)-1-{[1-({1-[(2-{[(2S)-1-(dimethylamino)propan-2-yl]carbamoyl}ethyl)carbamoyl]-1-methylethyl}carbamoyl)-1-methylethyl]carbamoyl}-3-methylbutyl]carbamoyl}-3-methylbutyl]carbamoyl}-2-hydroxypropyl]-2-{[(2S)-1-hexanoylpyrrolidin-2-yl]formamido}decanamide] (Hexanoyl-P[Gly(octyl)]TLL[Aib][Aib][βAla]-{NH((S)CH(Me)CH2NMe2)}) | 556 | 6.59 | 3.78 | 1240 | 2130
CCCCCCCC[C@H](NC(=O)[C@@H]1CCCN1C(=O)CCCCC)C(=O)N[C@H](C(=O)N[C@@H](CC(C)C)C(=O)N[C@@H](CC(C)C)C(=O)NC(C)(C)C(=O)NCCC(=O)N[C@@H](C)CN(C)C)[C@@H](C)O [Compound 5599, (2S)-N-[(1S,2R)-1-{[(1S)-1-{[(1S)-1-({1-[(2-{[(2S)-1-(dimethylamino)propan-2-yl]carbamoyl}ethyl)carbamoyl]-1-methylethyl}carbamoyl)-3-methylbutyl]carbamoyl}-3-methylbutyl]carbamoyl}-2-hydroxypropyl]-2-{[(2S)-1-hexanoylpyrrolidin-2-yl]formamido}decanamide] (Hexanoyl-P[Gly(octyl)]TLL[Aib][βAla]-{NH((S)CH(Me)CH2NMe2)}) | 4810 | 8.36 | 6.95 | 1940 | 3500
